The results in this text go back to patent US11213507B2, “MRSA biofilm inhibition” (University of South Florida, priority 2016, dated 2022).

Series [1] concerns methicillin-resistant Staphylococcus aureus (MRSA) CBD-635. The series is classed as cell-based. The text has this: (§1) Spongian diterpenes are well known as bioactive natural products. Darwinolide was screened for activity against a clinical strain of a highly resistant Staphylococcus aureus (MRSA). […] The remaining colony was subjected to a cell recovery experiment overnight after washout of darwinolide. […] Based on the 4-fold selectivity of darwinolide for MRSA biofilms over planktonic cells, and its low mammalian cytotoxicity, darwinolide presents a highly suitable scaffold for the development of urgently needed, novel anti-biofilm-specific antibiotics.
(§2) A clinical, multi-drug resistant strain of MRSA (CBD-635) was used in these studies for minimum inhibitory concentration (MIC) determination and assessment of anti-biofilm properties, all as described previously (Fleeman et al., J. Med. Chem. 2015, 58, 3340-3355).

The next series deals with MRSA biofilm (CBD-635). The series is described as follows: In vitro MRSA biofilm assay. The series is classed as cell-based, Staphylococcus aureus.
From the text: as §1, §2

Series [2] is described as follows: Cytotoxicity assay (MTS, 72 h) in J774 macrophage cell line. To be noted: mouse, J774.A-1 macrophage cell line. The series is classed as cell-based.
From the text: as §1
The J774.A-1 cell line was used for cytotoxicity screening via a colorometric method employing a tetrazolium derivative [3-(4,5-dimethylthiazol-2-yl)-5-(3-carboxymethoxyphenyl)-2-(4-sulfophenyl)-2H-tetrazolium] (MTS) 72 h assay using 50000 […] per well, and an electron-coupling reagent, and penazine methosulphate (PMS) were used in the assay. IC50 values were calculated from sigmoidal inhibition curves using SigmaPlot 11.0 software (von Salm et al., J. Org. Lett. 2014, 16, 2630-2633).

Series [3] deals with methicillin-resistant Staphylococcus aureus (MRSA) CBD-635. In words: Broth dilution MIC assay against clinical MRSA strain. The series is classed as cell-based.
From the text: as §1, §2

Values after ≈ are worked out from the molar mass of the structure shown.

As a reminder, the IC50 is the concentration that gives 50% inhibition. In general, MIC refers to the lowest concentration that inhibits growth of the organism. The low end stands for greater potency, the high end for weaker potency. As for `CC(=O)O[C@@H]1O[C@H]2OC(=O)C3=C(C)[C@@H]([C@@]4(C)CCCC(C)(C)C4)CC[C@@H]1[C@H]32` [darwinolide], the “cytotoxic or cytostatic toward S. aureus” value in series [1] (conclusion from cell recovery experiment) is “cytotoxic, rather than cytostatic”. Besides, the “treated bacterium able to recover and grow” value in series [1] (overnight recovery after washout of darwinolide, colony remaining from MIC assay) came out at 1.6%. For the same molecule, in the series on MRSA biofilm (CBD-635) (Staphylococcus aureus, biofilm established in vitro with same MRSA strain, read-out: IC50 against the biofilm), the half-inhibitory concentration (IC50) came out at 33.2 µM. For the same molecule, in the series with MRSA biofilm (CBD-635) (biofilm IC50 vs planktonic MIC), the “selectivity for MRSA biofilms over planktonic cells” value is 4 fold. The IC50 at 72 h in series [2] is 73.4 µM. This molecule had an MIC in series [3] of 133 µM (≈ 50 µg/mL).
